“Also recorded” adds a separate entry of the source.
How the values were obtained:
Format in all cases: in vivo
[1] = system: APP/PS1 mice; experiment: glial (GFAP) and Aβ double-immunofluorescence, astrocytes around Aβ plaques; conditions: 5 mg/kg i.p. once daily for 4 weeks, FIG 3
Method: (§1) Animals and treatment: The experiments were carried out on male APP/PS1 mice, which express the human mutated forms APPswe and PS1dE9, and wild-type (WT) littermates which were 5 month-old at the beginning of the study. In the present work, identification of transgenic mice was carried out as follows: genomic DNA was isolated from 1-cm tail clips and genotyped by polymerase chain reaction (PCR) technique using the PCR conditions proposed by Jackson Laboratory. Animals were maintained under standard animal housing conditions in a normal 12-h dark-light cycle with free access to food and water. The sample size for experimentation was computed using the Power and Precision software (Biostat, Englewood, NJ, USA), assuming a power of 95% and no missing data. Animal procedures were conducted according to ethical guidelines (European Community Council Directive 86/609/EEC) and approved by the local ethical committee (UB-IDIBELL). […]
(§2) Tissue Collection: At the end of the behavioral testing, the animals were sacrificed and their brains were removed. One brain hemisphere was dissected on ice, immediately frozen and stored at -80 °C until processing for protein or RNA quantification. […]
(§3) Glial and Aβ double-immunofluorescence: De-waxed sections were stained with a saturated solution of Sudan black B (Merck) for 30 min to block the autofluorescence of lipofuscin granules present in cell bodies, then rinsed in 70% ethanol and washed in distilled water. […] After washing, the sections were incubated with Alexa488 or Alexa546 (1:400, Molecular Probes) fluorescence secondary antibodies against the corresponding host species. […]
Densitometric quantification of glia around Aβ plaques: Astrocytic and microglial responses to Aβ deposition were evaluated by densitometric quantification of GFAP and Iba1 protein expression levels around Aβ plaques, respectively. […] Statistical analysis: Data were analyzed by two-way ANOVA with genotype and treatment or age as between factors, followed by Tukey's post hoc test when required. […]

[2] = system: APP/PS1 mice; experiment: Aβ immunohistochemistry, Aβ burden in neocortex; conditions: 5 mg/kg/day i.p. for 4 weeks, compared to vehicle-treated animals
Method: Animals and treatment: The experiments were carried out on male APP/PS1 mice, which express the human mutated forms APPswe and PS1dE9, and wild-type (WT) littermates which were 5 month-old at the beginning of the study. In the present work, identification of transgenic mice was carried out as follows: genomic DNA was isolated from 1-cm tail clips and genotyped by polymerase chain reaction (PCR) technique using the PCR conditions proposed by Jackson Laboratory. Animals were maintained under standard animal housing conditions in a normal 12-h dark-light cycle with free access to food and water. The sample size for experimentation was computed using the Power and Precision software (Biostat, Englewood, NJ, USA), assuming a power of 95% and no missing data. Animal procedures were conducted according to ethical guidelines (European Community Council Directive 86/609/EEC) and approved by the local ethical committee (UB-IDIBELL). The compounds (5 mg/kg) were dissolved in 1% DMSO and 99% saline, and were injected intraperitoneally (i.p.) in a volume of 10 mL/kg body weight. Animals were treated once daily for 4 weeks with (αS,7R,11R)-(Ia), (αS,7S,11S)-(Ia), (±)-(Ib), (±)-(Ic) or the corresponding vehicle (VEH) (wild-type, n = 6; APP/PS1, n = 6, each group). After 2 days of washing period, animals were subjected to behavioral evaluation.
Tissue Collection: At the end of the behavioral testing, the animals were sacrificed and their brains were removed. One brain hemisphere was dissected on ice, immediately frozen and stored at -80 °C until processing for protein or RNA quantification. The other brain hemisphere was fixed in 4% paraformaldehyde and processed for immunohistochemistry.
Aβ immunohistochemistry: Tissue samples were embedded in paraffin and coronal sections (4 µm) were cut with a microtome. […] No immunostaining was detected in these sections. […] The Aβ burden in neocortex was calculated as the percentage of the Aβ deposition area with respect to the total area in 9 representative pictures, corresponding to the main regions where Aβ deposition is observed in APP/PS1 mice. Sections from all the APP/PS1 animals were evaluated by using the Analysis tool of the software Adobe® Photoshop® CS4.
(§4) Densitometric quantification of glia around Aβ plaques: Astrocytic and microglial responses to Aβ deposition were evaluated by densitometric quantification of GFAP and Iba1 protein expression levels around Aβ plaques, respectively. […] Statistical analysis: Data were analyzed by two-way ANOVA with genotype and treatment or age as between factors, followed by Tukey's post hoc test when required. Aβ and glia quantifications were analyzed by one-way ANOVA followed by Tukey's post hoc test when required.

[3] = system: APP/PS1 mice; experiment: two-object recognition test (V-maze), cognitive performance; conditions: male APP/PS1 mice, 5 month-old, 5 mg/kg i.p. once daily for 4 weeks, FIG 1; for memory impairment in the two-object recognition test: tested after 2 days of washing period, 5 mg/kg
Method: as §1
Behavioral evaluation of cognitive performance: The two-object recognition test was performed. […] On the second day, mice were placed for 9 min in the maze, where two identical objects were situated at the end of the arms, and the time that the mice spent exploring each object was recorded. […] The time that the animals spent exploring the two objects was recorded and an object recognition index was calculated as the difference between the time spent exploring the novel and the familiar object, divided by the total time spent exploring the two objects.
as §4

[4] = system: APP/PS1 mice; experiment: glial (Iba1) and Aβ double-immunofluorescence, microglia around Aβ plaques; conditions: 5 mg/kg i.p. once daily for 4 weeks, compared to vehicle-treated APP/PS1 animals, FIG 4
Method: Animals and treatment: The experiments were carried out on male APP/PS1 mice, which express the human mutated forms APPswe and PS1dE9, and wild-type (WT) littermates which were 5 month-old at the beginning of the study. In the present work, identification of transgenic mice was carried out as follows: genomic DNA was isolated from 1-cm tail clips and genotyped by polymerase chain reaction (PCR) technique using the PCR conditions proposed by Jackson Laboratory. Animals were maintained under standard animal housing conditions in a normal 12-h dark-light cycle with free access to food and water. […]
as §2, §3

SMILES: CCC(C(=O)NCCCCCCCNc1c2c(nc3cc(Cl)ccc13)CCCC2)N1CCCC1=O (racemic) [(±)-(Ib), (±)-N-{7-[(6-chloro-1,2,3,4-tetrahydroacridin-9-yl)amino]heptyl}-2-(2-oxopyrrolidin-1-yl)butanamide]
- number of astrocytes around Aβ plaques (GFAP/Aβ) [1]: produced a tendency to reduce
- Aβ burden in the cortex ([2]; FIG 2): tends to reduce

SMILES: CCC(C(=O)NCCCCCCCNc1c2c(nc3ccccc13)CCCC2)N1CCCC1=O (racemic) [(±)-(Ic), (±)-N-{7-[(1,2,3,4-tetrahydroacridin-9-yl)amino]heptyl}-2-(2-oxopyrrolidin-1-yl)butanamide]
- recognition index ([3]; compared to vehicle-treated animals): significantly increased
- memory impairment in the two-object recognition test [3]: did not exhibit memory impairment; also recorded: reverse the memory impairment
- Aβ burden in the cortex ([2]; FIG 2): tends to reduce

SMILES: CC[C@@H](C(=O)NCCCCCCCNc1c2c(nc3cc(Cl)ccc13)C[C@@H]1C=C(C)C[C@H]2C1)N1CCCC1=O [(αS,7R,11R)-(Ia), (+)-(αS,7R,11R)-N-{7-[(3-chloro-6,7,10,11-tetrahydro-9-methyl-7,11-methanocycloocta[b]quinolin-12-yl)amino]heptyl}-2-(2-oxopyrrolidin-1-yl)butanamide]
- number of astrocytes around Aβ plaques (GFAP/Aβ) [1]: produced a tendency to reduce
- Aβ burden in the cortex ([2]; FIG 2): tends to reduce

SMILES: CC[C@@H](C(=O)NCCCCCCCNc1c2c(nc3cc(Cl)ccc13)C[C@H]1C=C(C)C[C@@H]2C1)N1CCCC1=O [(αS,7S,11S)-(Ia), (-)-(αS,7S,11S)-N-{7-[(3-chloro-6,7,10,11-tetrahydro-9-methyl-7,11-methanocycloocta[b]quinolin-12-yl)amino]heptyl}-2-(2-oxopyrrolidin-1-yl)butanamide]
- number of microglial cells associated with Aβ plaques (Iba1/Aβ) [4]: decreased microglial reaction
- number of astrocytes around Aβ plaques (GFAP/Aβ) [1]: produced a tendency to reduce
- memory impairment in the two-object recognition test [3]: did not exhibit memory impairment; also recorded: reverse the memory impairment
- Aβ burden in the cortex ([2]; FIG 2, 5 mg/kg/day): tends to reduce; also recorded: reduction in the cortical Aβ plaques deposition

Source: patent EP2818467A1, “Multi-target drug compounds for the treatment of neurodegenerative disorders” (Universitat de Barcelona, priority 2013, dated 2014)
